Measured values from patent US7985764B2, “Amide derivative or salt thereof” (Astellas Pharma Inc., priority 2006, dated 2011).
Counter-ions that a name gives are not always drawn.

What was measured:
human 5-HT2B receptor = target: T1, human 5-HT2B receptor (Homo sapiens, UniProt P41595); assay: 5-HT2B receptor binding test; conditions: human 5-HT2B receptor expressing HEK293-EBNA cell membrane; radio-ligand [3H] Mesulergine or [3H] Serotonin
T1 construct: expressed in transfected cells; host or cells: HEK293-EBNA
T1 sequence (P41595 whole entry): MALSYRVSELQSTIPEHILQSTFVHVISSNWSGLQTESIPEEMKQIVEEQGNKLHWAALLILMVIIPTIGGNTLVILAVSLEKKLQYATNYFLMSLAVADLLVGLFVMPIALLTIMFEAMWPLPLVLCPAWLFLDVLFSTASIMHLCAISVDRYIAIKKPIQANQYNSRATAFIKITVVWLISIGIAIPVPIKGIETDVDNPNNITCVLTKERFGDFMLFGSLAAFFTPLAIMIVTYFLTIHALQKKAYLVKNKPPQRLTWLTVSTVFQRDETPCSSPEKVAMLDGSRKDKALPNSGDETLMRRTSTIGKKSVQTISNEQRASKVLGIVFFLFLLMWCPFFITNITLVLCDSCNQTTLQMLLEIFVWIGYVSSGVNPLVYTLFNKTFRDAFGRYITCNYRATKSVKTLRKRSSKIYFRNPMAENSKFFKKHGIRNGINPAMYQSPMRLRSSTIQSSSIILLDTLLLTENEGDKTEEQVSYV
Procedure: Effects of the compound (I) of the present invention were verified by the following pharmacological tests. • Test Method (1) 5-HT2B Receptor Binding Test • (i) Preparation of Membrane Sample
(§1) Cultured human 5-HT2B receptor expressing HEK293-EBNA cells were washed with a phosphate buffer (PBS)(−). The cells were peeled off with a scraper in the presence of PBS(−), and the cells were recovered by centrifugation (1,000 rpm, 10 minutes, 4° C.). In the presence of 5 mM tris-hydrochloric acid (Tris-HCl) (pH 7.4) buffer, homogenized using a homogenizer (registered trademark: Polytron (PTA 10-TS)), and centrifugation-treated (40,000×g, 10 minutes, 4° C.). In the presence of 50 mM Tris-HCl (pH 7.4) buffer, suspended using Glass-Teflon (registered trademark) homogenizer. By carrying out centrifugation treatment (40,000×g, 10 minutes, 4° C.), suspended in 50 mM Tris-HCl (pH 7.4) and stored at −80° C.
(§2) (ii) Receptor Binding Test
A total volume of 500 μl containing 50 mM Tris-HCl, a 4 mM CaCl2 (pH 7.4) buffer, a human 5-HT2B receptor expressing HEK293-EBNA cell membrane preparation and a radio-ligand [^3H] Mesulergine (3.1 TBq/mmol;) or [^3H] Serotonin (5-Hydroxytryptamine) (3.7 TBq/mmol;) was incubated at 25° C. for 1 hour. The compound was dissolved in 100% dimethyl sulfoxide (DMSO) and diluted to respective concentrations. Binding quantity in the presence of 1 μM ritanserin was regarded as the nonspecific binding, and a result of subtracting the nonspecific binding quantity from the total binding quantity was regarded as the specific binding quantity. After adding 4 ml of 50 mM Tris-HCl buffer (pH 7.4) and filtering under a reduced pressure using a GF/B glass filter, the filter was washed (4 ml×3) with the same buffer. By soaking the glass filter in 5 ml of a liquid scintillator (trade name: Aquasol-2), the radioactivity quantity was measured using a liquid scintillation counter. […] Ex represents the Example compound number which is described later.

human 5-HT7 receptor = target: T2, human 5-HT7 receptor (Homo sapiens, UniProt P34969); assay: 5-HT7 receptor binding test; conditions: human 5-HT7 receptor expressing CHO cell membrane; radio-ligand [3H] 5-HT
T2 construct: expressed in transfected cells; host or cells: CHO
T2 sequence (P34969 whole entry): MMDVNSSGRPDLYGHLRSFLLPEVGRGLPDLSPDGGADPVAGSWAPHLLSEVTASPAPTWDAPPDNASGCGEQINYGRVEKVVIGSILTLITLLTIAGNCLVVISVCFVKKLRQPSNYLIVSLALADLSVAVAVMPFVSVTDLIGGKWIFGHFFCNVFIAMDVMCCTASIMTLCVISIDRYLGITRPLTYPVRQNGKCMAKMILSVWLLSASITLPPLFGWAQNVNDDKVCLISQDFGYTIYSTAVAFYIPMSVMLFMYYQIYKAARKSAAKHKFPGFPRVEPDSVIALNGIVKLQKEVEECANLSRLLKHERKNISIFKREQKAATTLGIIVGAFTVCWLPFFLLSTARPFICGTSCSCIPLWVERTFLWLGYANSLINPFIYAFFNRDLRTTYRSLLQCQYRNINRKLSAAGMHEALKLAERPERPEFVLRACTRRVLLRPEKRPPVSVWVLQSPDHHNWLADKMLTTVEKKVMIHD
Procedure: Test Method (2) 5-HT7 Receptor Binding Test (i) Preparation of Membrane Sample
as §1, with “5-HT7” for “5-HT2B”, “CHO” for “HEK293-EBNA”, “PBS(−).” for “a phosphate buffer (PBS)(−).”, “Tris-HCl” for “tris-hydrochloric acid (Tris-HCl)”
as §2
A total volume of 500 μl containing 50 mM Tris-HCl, a 4 mM CaCl2 (pH 7.4) buffer, a human 5-HT7 receptor expressing CHO cell membrane preparation and a radio-ligand [^3H] 5-HT (3.40 TBq/mmol) was incubated at 25° C. for 1 hour. The compound was dissolved in 100% DMSO and diluted to respective concentrations.
Binding quantity in the presence of 10 μM metergoline was regarded as the nonspecific binding, and a result of subtracting the nonspecific binding quantity from the total binding quantity was regarded as the specific binding quantity. After adding 4 ml of 50 mM Tris-HCl buffer (pH 7.4) and filtering under a reduced pressure using a GF/B glass filter, the filter was washed (4 ml×3) with the same buffer. By soaking the glass filter in 5 ml of a liquid scintillator (trade name: Aquasol-2), the radioactivity quantity was measured using a liquid scintillation counter.

male Wistar rats = assay: Defecation suppressing effect at the time of restraint stress loading (rat restraint stress defecation model); format: in vivo; conditions: for dose from which a significant suppressing action (number of feces excreted) is shown: p.o.; for defecation-suppressing action: 10 mg/kg p.o., restraint stress loaded 30 minutes after the administration; for number of feces excreted, in comparison with the non-administration group: 1, 3 or 10 mg/kg administration group, N=10
Procedure: Test Method (4) Defecation Suppressing Effect at the Time of Restraint Stress Loading
The IBS-treating effect of the compound (I) of the present invention was evaluated using a test method in which the amount of excreted feces is measured by loading a restraint stress on rats (see “The Journal of Pharmacology Experimental Therapeutics”, (USA), 1992, vol. 261, p. 297-303).
The agent to be tested was administered to male Wistar rats (body weight 250 to 320 g, 10 animals for each group), and a restraint stress was loaded 30 minutes to 3 hours thereafter. A restraint cage (trade name: KN-468, 265 mm in width×95 mm in length×200 mm in height, Natsume Seisakusho, Tokyo) was used for the restraint stress loading, and the number of feces excreted during 1 hour after the stress loading was counted.

5-HT2B receptor = conditions: versus 5-HT1A, 5-HT1B, 5-HT2A, 5-HT2C, 5-HT3, 5-HT6, 5-HT7, α1, M1, D2 and the like; cited from earlier work
[1] = restraint stress loaded 1 hour after the administration

NC(N)=NC(=O)c1ccc2c(c1)[nH]c(=O)n2Cc1ccc(F)cc1 [Example 10, N-[1-(4-fluoro-benzyl)-2-oxo-2,3-dihydro-1H-benzimidazole-5-carbonyl]-guanidine hydrochloride]
Ki (human 5-HT2B receptor): 2.7 nM
Ki (human 5-HT7 receptor): 2.8 nM

Cc1c(C)n(Cc2ccc(F)cc2)c2ccc(C(=O)N=C(N)N)cc12 [Example 24]
Ki (human 5-HT2B receptor): 0.24 nM
Ki (human 5-HT7 receptor): 0.66 nM

Cc1c(S(C)(=O)=O)c2cc(C(=O)N=C(N)N)ccc2n1Cc1ccc(F)cc1 [Example 102]
Ki (human 5-HT2B receptor): 0.12 nM
Ki (human 5-HT7 receptor): 0.36 nM

CCc1c(C)n(Cc2ccc(F)cc2)c2ccc(C(=O)N=C(N)N)cc12 [Example 103, N-(diaminomethylene)-3-ethyl-1-(4-fluorobenzyl)-2-methyl-1H-indole-5-carboxamide]
dose from which a significant suppressing action (number of feces excreted) is shown (male Wistar rats; [1]): ≥ 1 mg/kg
Ki (human 5-HT2B receptor): 0.12 nM
Ki (human 5-HT7 receptor): 1.3 nM

CC(=O)c1c(C)n(Cc2ccc(F)cc2)c2ccc(C(=O)N=C(N)N)cc12 [Example 104, 3-acetyl-N-(diaminomethylene)-1-(4-fluorobenzyl)-2-methyl-1H-indole-5-carboxamide]
Ki (human 5-HT2B receptor): 0.088 nM
Ki (human 5-HT7 receptor): 1.3 nM

Cc1c(C)n(Cc2ccc(F)cc2)c2ccc(C(=O)NCCN(C)C)cc12 [Example 156]
Ki (human 5-HT2B receptor): 3.4 nM
Ki (human 5-HT7 receptor): 3.4 nM

CCc1c(C)n(Cc2ccc(F)cc2)c2ccc(C(=O)NCCN(C)C)cc12 [Example 226]
dose from which a significant suppressing action (number of feces excreted) is shown (male Wistar rats; [1]): ≥ 1 mg/kg
Ki (human 5-HT2B receptor): 0.19 nM
Ki (human 5-HT7 receptor): 4.3 nM

CCc1c(C)n(Cc2ccc(F)cc2)c2ccc(C(=O)N[C@H]3CCN(C)C3)cc12 [Example 236]
dose from which a significant suppressing action (number of feces excreted) is shown (male Wistar rats; restraint stress loaded 3 hours after the administration): ≥ 0.3 mg/kg
Ki (human 5-HT2B receptor): 0.29 nM
Ki (human 5-HT7 receptor): 2.6 nM

CCc1c(CC)n(Cc2ccc(F)cc2)c2ccc(C(=O)N[C@H]3CCN(C)C3)cc12 [Example 237]
Ki (human 5-HT2B receptor): 0.22 nM
Ki (human 5-HT7 receptor): 4.9 nM

CCc1c(C)n(Cc2ccc(F)cc2)c2ccc(C(=O)N[C@@H]3CCN(C)C3)cc12 [Example 238]
Ki (human 5-HT2B receptor): 0.24 nM
Ki (human 5-HT7 receptor): 8 nM

Cc1nc2cc(C(=O)N=C(N)N)ccc2n1Cc1ccc(F)cc1 [Example 244, N-(diaminomethylene)-1-(4-fluorobenzyl)-2-methyl-1H-benzimidazol-5-carboxamide]
dose from which a significant suppressing action (number of feces excreted) is shown (male Wistar rats; [1]): ≥ 3 mg/kg

CC(C)c1cc(-c2ccc(F)c3ccccc23)nc(N)n1 [RS-127445, 2-amino-4-(4-fluoronaphth-1-yl)-6-isopropylpyrimidine, reference compound]
defecation-suppressing action (male Wistar rats): did not show defecation-suppressing action
number of feces excreted, in comparison with the non-administration group (male Wistar rats): Significant difference was not found
5-HT2B receptor-selective by a factor (5-HT2B receptor): ≥ 1000 times

CC1CCN(CC[C@H]2CCCN2S(=O)(=O)c2cccc(O)c2)CC1 [SB-269970, (R)-3-(2-(2-(4-methylpiperidin-1-yl)ethyl)pyrrolidine-1-sulfonyl)phenol, reference compound]
defecation-suppressing action (male Wistar rats): did not show the defecation-suppressing action
number of feces excreted, in comparison with the non-administration group (male Wistar rats): Significant difference was not found
